Experimental data from US8389523B2, “Substituted quinoxaline and an agrochemical composition thereof” (Kumiai Chemical Industry Co., Ltd., priority 2007, dated 2013).

How the values were obtained:
Type in all cases: in vivo
Design in all cases: scale not given here
[1] = test system: Abutilon theophrasti medicus; assay: Herbicidal effects in upland field foliar treatment (Test Example 3); details: criteria of Table 138; for herbicidal effects on Abutilon theophrasti medicus: 1000 g of the active ingredient per hectare, 14th day after the treatment, wettable powder; for herbicidal effect (index) on Abutilon theophrasti medicus: 1000 g active ingredient per hectare, 14th day after treatment
Experimental: (§1) Test Example 3 Test on Herbicidal Effects in Upland Field Foliar Treatment A 80-cm^2 plastic pot was filled with upland field soil. Seeds of Echinochloa crus-galli (L.) P. Beauv. var. crus-galli, Abutilon theophrasti medicus and Amaranthus viridis L. were sowed, and the plants were grown for two weeks in a greenhouse. A wettable powder formulation prepared according to Preparation Example 1 was diluted with water, and was sprayed with a small sprayer to perform foliar application over the entirety of plants from the upper side, in an amount equivalent to 1000 liters per hectare, such that 1000 g of the active ingredient per hectare was applied. Thereafter, the plants were grown in a greenhouse, and on the 14th day after the treatment, the herbicidal effects were investigated according to the criteria described in the Table 138 shown above.

Amaranthus viridis L. [2] = assay: as above; details: criteria of Table 138; for herbicidal effects on Amaranthus viridis L.: 1000 g of the active ingredient per hectare, 14th day after the treatment, wettable powder; for herbicidal effect (index) on Amaranthus viridis L.: 1000 g active ingredient per hectare, 14th day after treatment
Experimental: as §1

[3] = test system: Echinochloa crus-galli (L.) P. Beauv. var. crus-galli; assay: as above; details: criteria of Table 138; for herbicidal effects on Echinochloa crus-galli (L.) P. Beauv. var. crus-galli: 1000 g of the active ingredient per hectare, 14th day after the treatment, wettable powder; for herbicidal effect (index) on Echinochloa crus-galli (L.) P. Beauv. var. crus-galli: 1000 g active ingredient per hectare, 14th day after treatment
Experimental: as §1

[4] = test system: Echinochloa oryzicola Vasing; assay: Herbicidal effects in paddy field soil treatment (Test Example 1); details: for Herbicidal effects index, Echinochloa oryzicola Vasing: paddy field soil treatment, 1000 g of the active ingredient per hectare, wettable powder added dropwise on water surface, 21st day after treatment; for herbicidal effect (index) on Echinochloa oryzicola Vasing: paddy field soil treatment (Test Example 1), criteria of Table 138
Procedure, shortened: (§2)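 Application rate 1000 g a.i./ha, delivered as water-diluted wettable powder onto flooded (3 cm) paddy soil one day after sowing. Plants kept in a greenhouse and evaluated for herbicidal effect on day 21 post-treatment.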

[5] = test system: Monochoria vaginalis (Burm. f.) Presl var. plantaginea (Roxb.) Solms-Laub.; assay: as above; details: for Herbicidal effects index, Monochoria vaginalis (Burm. f.) Presl var. plantaginea (Roxb.) Solms-Laub.: paddy field soil treatment, 1000 g of the active ingredient per hectare, wettable powder added dropwise on water surface, 21st day after treatment; for herbicidal effect (index) on Monochoria vaginalis (Burm. f.) Presl var. plantaginea (Roxb.) Solms-Laub.: paddy field soil treatment (Test Example 1), criteria of Table 138
Procedure, shortened: as §2

[6] = test system: Scirpus juncoides Roxb. var. ohwianus. T. Koyama; assay: as above; details: for Herbicidal effects index, Scirpus juncoides Roxb. var. ohwianus. T. Koyama: paddy field soil treatment, 1000 g of the active ingredient per hectare, wettable powder added dropwise on water surface, 21st day after treatment; for herbicidal effect (index) on Scirpus juncoides Roxb. var. ohwianus. T. Koyama: paddy field soil treatment (Test Example 1), criteria of Table 138
Procedure, shortened: as §2

[7] = test system: Abutilon theophrasti medicus; assay: Herbicidal effects in upland field soil treatment (Test Example 2); details: 1000 g active ingredient per hectare, 21st day after treatment, criteria of Table 138
Procedure, shortened: (§3)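 Herbicidal effect graded 21 days after treatment, plants kept in greenhouse. Treatment was a soil-surface spray of wettable powder in water, 1000 g a.i./ha in 1000 L/ha, applied after sowing and covering seeds.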

Amaranthus viridis L. [8] = assay: as above; details: 1000 g active ingredient per hectare, 21st day after treatment, criteria of Table 138
Procedure, shortened: as §3

Structure (SMILES) | herbicidal effects on Abutilon theophrasti medicus [1] | herbicidal effects on Amaranthus viridis L. (Amaranthus viridis L. [2]) | herbicidal effects on Echinochloa crus-galli (L.) P. Beauv. var. crus-galli [3] | Herbicidal effects index, Echinochloa oryzicola Vasing [4] | Herbicidal effects index, Monochoria vaginalis (Burm. f.) Presl var. plantaginea (Roxb.) Solms-Laub. [5] | Herbicidal effects index, Scirpus juncoides Roxb. var. ohwianus. T. Koyama [6] | herbicidal effect (index) on Abutilon theophrasti medicus [7] | herbicidal effect (index) on Amaranthus viridis L. (Amaranthus viridis L. [8]) | herbicidal effect (index) on Echinochloa oryzicola Vasing [4] | herbicidal effect (index) on Monochoria vaginalis (Burm. f.) Presl var. plantaginea (Roxb.) Solms-Laub. [5] | herbicidal effect (index) on Scirpus juncoides Roxb. var. ohwianus. T. Koyama [6] | herbicidal effect (index) on Abutilon theophrasti medicus [1] | herbicidal effect (index) on Amaranthus viridis L. (Amaranthus viridis L. [2]) | herbicidal effect (index) on Echinochloa crus-galli (L.) P. Beauv. var. crus-galli [3]
O=C1CCCC(O)=C1C(=O)c1nc2cccnc2n(-c2ccc(C(F)(F)F)cc2)c1=O [IV-44] | 5 | 5 | 5 | 5 | 5 | 5 | 5 | 5 |  |  |  |  |  | 
O=C1CCCC(O)=C1C(=O)c1ccc2ccccc2n1 [comparative compound B, reference compound] | 5 | 1 | 0 |  |  |  | 2 | 2 | 0 | 0 | 0 |  |  | 
O=C1CCCC(O)=C1C(=O)c1nc2cccnc2n(-c2ccccc2F)c1=O [IV-6] | 5 | 5 | 4 | 4 | 5 | 5 | 5 | 5 |  |  |  |  |  | 
Cn1c(=O)c(C(=O)C2=C(O)CCCC2=O)nc2cccnc21 [III-2] | 5 | 5 | 5 | 5 | 5 | 5 | 5 | 5 |  |  |  |  |  | 
Cn1c(=O)c(C(=O)C2=C(O)CCCC2=O)nc2cccc(Cl)c21 [I-229] |  |  |  | 4 | 5 | 5 | 5 | 5 |  |  |  | 5 | 5 | 4
COc1ccc(-n2c(=O)c(C(=O)C3=C(O)CCCC3=O)nc3cccnc32)cc1 [IV-62, 2-(2-hydroxy-6-oxo-1-cyclohexenecarbonyl)-4-(4-methoxyphenyl)-pyrido[2,3-b]pyrazin-3(4H)-one] | 5 | 5 | 5 |  |  |  | 5 | 5 | 5 | 5 | 5 |  |  | 
Cc1cnc(-n2c(=O)c(C(=O)C3=C(O)CCCC3=O)nc3ccccc32)s1 [I-380] |  |  |  | 4 | 5 | 5 | 5 | 5 |  |  |  | 5 | 5 | 4
O=C1CCCC(O)=C1C(=O)c1nc2ccccc2n(-c2ccc(OCC3CC3)cc2)c1=O [II-208] | 5 | 5 | 4 | 5 | 5 | 5 | 5 | 5 |  |  |  |  |  | 
O=C1CCCC(O)=C1C(=O)c1nc2ccccc2n(-c2ccc(Br)cn2)c1=O [I-271] |  |  |  | 5 | 5 | 5 | 5 | 5 |  |  |  | 5 | 5 | 5
O=C1CCCC(O)=C1C(=O)c1nc2ccccc2n(-c2ccccn2)c1=O [I-171] |  |  |  | 5 | 5 | 5 | 5 | 5 |  |  |  | 5 | 5 | 5
O=C1CCCC(O)=C1C(=O)c1nc2cccnc2n(-c2ccc(Br)cc2)c1=O [IV-18] | 5 | 5 | 5 | 5 | 5 | 5 | 5 | 5 |  |  |  |  |  | 
Cc1ccccc1-n1c(=O)c(C(=O)C2=C(O)CCCC2=O)nc2cccnc21 [IV-19] | 5 | 5 | 5 | 5 | 5 | 5 | 5 | 5 |  |  |  |  |  | 
O=C1CCCC(O)=C1C(=O)c1nc2ccccc2n(-c2ccc3occc3c2)c1=O [I-277] |  |  |  | 5 | 5 | 5 | 4 | 5 |  |  |  | 5 | 5 | 5
CC1(C)CCC(=O)C(C(=O)c2nc3cccnc3n(-c3ccccc3)c2=O)=C1O [IV-2] | 5 | 5 | 5 | 5 | 5 | 5 | 5 | 5 |  |  |  |  |  | 
O=C1CCCC(O)=C1C(=O)c1nc2ccccc2n(COCC(F)(F)F)c1=O [I-59] |  |  |  | 5 | 5 | 5 | 5 | 5 |  |  |  | 5 | 5 | 5
Cc1ccc(-n2c(=O)c(C(=O)C3=C(O)CCCC3=O)nc3cccnc32)cc1F [IV-222, 4-(3-fluoro-4-methylphenyl)-2-(2-hydroxy-6-oxo-1-cyclohexenecarbonyl)-pyrido[2,3-b]pyrazin-3 (4H)-one] | 5 | 5 | 5 |  |  |  | 5 | 5 | 5 | 5 | 5 |  |  | 
Cc1csc(-n2c(=O)c(C(=O)C3=C(O)CCCC3=O)nc3ccccc32)n1 [I-160] |  |  |  | 5 | 5 | 5 | 5 | 5 |  |  |  | 5 | 5 | 5
